# Data from patent EP4273147A1, “SUBSTITUTED SPIROLACTAMS, SALTS THEREOF AND THEIR USE AS HERBICIDALLY ACTIVE SUBSTANCES” (Bayer Aktiengesellschaft, priority 2022, dated 2023).
# Experiments:
# [1] = tested on: POAAN; experiment: Herbicidal post-emergence action (Table B7); format: in vivo, Poa annua
# In short: (§1)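 Treated at one-leaf stage (2–3 weeks after sowing in sandy loam, greenhouse-grown). Visual efficacy rating after about 3 weeks; 0% = like controls, 100% = complete kill.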
# [2] = tested on: KCHSC; experiment: Herbicidal pre-emergence action (Table A10); format: in vivo, Kochia scoparia; settings: application rate 1280 g/ha; visual grading after ca. 3 weeks
# In short: (§2)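 For this pre-emergence setup, sandy loam pots received seeds of one monocot and one dicot weed species each. The seeds were then covered with soil.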
# [3] = tested on: ALOMY; experiment: Herbicidal pre-emergence action (Table A9); format: in vivo, Alopecurus myosuroides; settings: visual grading after ca. 3 weeks
# In short: as §2
# [4] = tested on: ECHCG; experiment: Herbicidal pre-emergence action (Table A2); format: in vivo, Echinochloa crus-galli; settings: visual grading after ca. 3 weeks
# In short: as §2
# [5] = tested on: SETVI; experiment: Herbicidal pre-emergence action (Table A5); format: in vivo, Setaria viridis; settings: visual grading after ca. 3 weeks
# In short: as §2
# [6] = tested on: LOLRI; experiment: Herbicidal pre-emergence action (Table A3); format: in vivo, Lolium rigidum; settings: visual grading after ca. 3 weeks
# In short: as §2
# [7] = tested on: AMARE; experiment: Herbicidal post-emergence action (Table B11); format: in vivo, Amaranthus retroflexus
# Method: (§3) Seeds of mono- and dicotyledonous weed plants were placed in plastic pots in sandy loam soil (doubly sown with in each case one species of mono- or dicotyledonous weed plants per pot), covered with soil and cultivated in a greenhouse under controlled growth conditions. 2 to 3 weeks after sowing, the test plants were treated at the one-leaf stage. […] After the test plants had been kept in the greenhouse under optimum growth conditions for about 3 weeks, the activity of the preparations was rated visually in comparison to untreated controls. For example, 100% activity = the plants have died, 0% activity = like control plants.
# [8] = tested on: POAAN; experiment: Herbicidal pre-emergence action (Table A7); format: in vivo, Poa annua; settings: visual grading after ca. 3 weeks
# In short: as §2
# [9] = tested on: ECHCG; experiment: Herbicidal post-emergence action (Table B3); format: in vivo, Echinochloa crus-galli; settings: rated visually after about 3 weeks
# In short: as §1
# [10] = tested on: STEME; experiment: Herbicidal pre-emergence action (Table A6); format: in vivo, Stellaria media; settings: visual grading after ca. 3 weeks
# In short: as §2
# [11] = tested on: VERPE; experiment: Herbicidal post-emergence action (Table B10); format: in vivo, Veronica persica
# Method: as §3
# [12] = tested on: ABUTH; experiment: Herbicidal pre-emergence action (Table A1); format: in vivo, Abutilon theophrasti; settings: application rate 1280 g/ha; visual grading after ca. 3 weeks vs untreated controls (100% = plants have died off, 0% = as control plants)
# Text: (§4) Seeds of mono- and dicotyledonous weed plants were sown in plastic pots (double sowings with one species of mono- and one species of dicotyledonous weed plants per pot), in sandy loam, and covered with soil.
# [13] = tested on: MATIN; experiment: Herbicidal pre-emergence action (Table A4); format: in vivo, Matricaria inodora; settings: application rate 1280 g/ha; visual grading after ca. 3 weeks
# In short: as §2
# [14] = tested on: ECHCG; experiment: Herbicidal post-emergence action, section E (Table E5); format: in vivo, Echinochloa crus-galli; settings: application rate 320 g/ha; assessed visually after ca. 3 weeks
# Text: (§5) 2 to 3 weeks after sowing, the test plants were sprayed in the single-leaf stage.
# [15] = tested on: ORYZA; experiment: Pre-emergence effects on crop plants (Table D3); settings: crop plant; application rate 80 g/ha; visual grading after ca. 3 weeks
# [16] = tested on: ALOMY; experiment: Herbicidal pre-emergence action, section C (Table C2); format: in vivo, Alopecurus myosuroides; settings: application rate 320 g/ha; visual grading after ca. 3 weeks
# [17] = tested on: ZEAMX; experiment: Pre-emergence effects on crop plants (Table D1); format: in vivo, Zea mays; settings: crop plant; application rate 80 g/ha; visual grading after ca. 3 weeks
# [18] = tested on: ECHCG; experiment: Herbicidal pre-emergence action, section C (Table C6); format: in vivo, Echinochloa crus-galli; settings: application rate 80 g/ha; visual grading after ca. 3 weeks
# Text: (§6) Seeds of mono- and dicotyledonous weed plants and crop plants were sown, in plastic or organic planting pots, in sandy loam and covered with soil. The compounds according to the invention, formulated in the form of wettable powders (WP) or as emulsifiable concentrates (EC), were applied to the surface of the covering soil as aqueous suspension or emulsion, with the addition of 0.5% of an additive, at an application rate of 600 1 of water/ha (converted). Following treatment, the pots were placed in a greenhouse and kept under optimum growth conditions for the test plants.
# [19] = tested on: LOLRI; experiment: Herbicidal pre-emergence action, section C (Table C7); format: in vivo, Lolium rigidum; settings: application rate 320 g/ha; visual grading after ca. 3 weeks
# [20] = tested on: ORYZA; experiment: Post-emergence effects on crop plants (Table F3); format: in vivo, Oryza sativa; settings: application rate 320 g/ha, crop plant ORYZA
# Text: as §5
# [21] = tested on: ZEAMX; experiment: Post-emergence effects on crop plants (Table F1); format: in vivo, Zea mays; settings: application rate 80 g/ha, crop plant ZEAMX
# Text: as §5
# [22] = tested on: GLXMA; experiment: Pre-emergence effects on crop plants (Table D4); format: in vivo, Glycine max; settings: crop plant; application rate 80 g/ha; visual grading after ca. 3 weeks
# [23] = tested on: SETVI; experiment: Herbicidal pre-emergence action, section C (Table C10); format: in vivo, Setaria viridis; settings: application rate 320 g/ha; visual grading after ca. 3 weeks
# Text: as §6
# [24] = tested on: VIOTR; experiment: Herbicidal pre-emergence action, section C (Table C12); format: in vivo, Viola tricolor; settings: application rate 320 g/ha; visual grading after ca. 3 weeks
# [25] = tested on: TRZAS; experiment: Post-emergence effects on crop plants (Table F2); format: in vivo, Triticum aestivum; settings: application rate 320 g/ha, crop plant TRZAS
# Text: as §5
# [26] = tested on: BRSNW; experiment: Post-emergence effects on crop plants (Table F5); format: in vivo, Brassica napus; settings: application rate 320 g/ha, crop plant BRSNW
# Text: as §5
# [27] = tested on: BRSNW; experiment: Pre-emergence effects on crop plants (Table D5); format: in vivo, Brassica napus; settings: crop plant; application rate 320 g/ha; visual grading after ca. 3 weeks
# [28] = tested on: AMARE; experiment: Herbicidal pre-emergence action (Table A8); format: in vivo, Amaranthus retroflexus; settings: visual grading after ca. 3 weeks vs untreated controls (100% = plants have died off, 0% = as control plants)
# Text: as §4
# [29] = tested on: DIGSA; experiment: Herbicidal pre-emergence action (Table A12); format: in vivo, Digitaria sanguinalis; settings: visual grading after ca. 3 weeks
# In short: as §2
# [30] = tested on: ABUTH; experiment: Herbicidal post-emergence action (Table B1); format: in vivo, Abutilon theophrasti; settings: application rate 320 g/ha; treated at one-leaf stage; rated visually after about 3 weeks vs untreated controls (100% = plants have died, 0% = like control plants)
# Method: as §3
# [31] = tested on: SETVI; experiment: Herbicidal post-emergence action (Table B8); format: in vivo, Setaria viridis; settings: application rate 1280 g/ha
# Method: as §3
# [32] = tested on: VERPE; experiment: Herbicidal pre-emergence action (Table A11); format: in vivo, Veronica persica; settings: application rate 1280 g/ha; visual grading after ca. 3 weeks
# In short: as §2
# [33] = tested on: MATIN; experiment: Herbicidal post-emergence action (Table B6); format: in vivo, Matricaria inodora; settings: application rate 1280 g/ha; rated visually after about 3 weeks
# Method: as §3
SMILES,post-emergence activity against POAAN ([1]; application rate 1280 g/ha),pre-emergence activity against KCHSC [2],pre-emergence activity against ECHCG ([4]; application rate 320 g/ha),pre-emergence activity against SETVI ([5]; application rate 320 g/ha),post-emergence activity against AMARE ([7]; application rate 1280 g/ha),pre-emergence activity against POAAN ([8]; application rate 320 g/ha),post-emergence activity against ECHCG ([9]; application rate 1280 g/ha),pre-emergence activity against ECHCG ([4]; application rate 1280 g/ha),pre-emergence activity against SETVI ([5]; application rate 1280 g/ha),pre-emergence activity against MATIN [13],pre-emergence activity against LOLRI ([6]; application rate 1280 g/ha),also measured
O=C1N(Cc2cccs2)CCCC12CCCN(Cc1ccccc1F)C2=O (racemic) [I-065],90%,90%,90%,90%,90%,,,,,,,pre-emergence activity against ALOMY ([3]; application rate 1280 g/ha): 90%; pre-emergence activity against LOLRI ([6]; application rate 320 g/ha): 100%
O=C1N(Cc2cccs2)CCCC12CCCN(Cc1cccc(F)c1F)C2=O (racemic) [I-040],,90%,,,100%,100%,90%,100%,100%,90%,,post-emergence activity against POAAN ([1]; application rate 320 g/ha): 100%; pre-emergence activity against STEME ([10]; application rate 320 g/ha): 90%; post-emergence activity against VERPE ([11]; application rate 1280 g/ha): 90%; pre-emergence activity against ABUTH [12]: 90%; pre-emergence activity against LOLRI ([6]; application rate 320 g/ha): 100%
COc1ccccc1CN1CCCC2(CCCN(Cc3cccc(F)c3F)C2=O)C1=O (racemic) [I-052],,,100%,100%,,,90%,,,,,post-emergence activity against ECHCG [14]: 80%; pre-emergence activity against ORYZA [15]: 20%; pre-emergence activity against ALOMY [16]: 90%; pre-emergence activity against ZEAMX [17]: 0%; pre-emergence activity against ECHCG [18]: 100%; pre-emergence activity against LOLRI [19]: 90%; post-emergence activity against ORYZA [20]: 20%; post-emergence activity against ZEAMX [21]: 0%; pre-emergence activity against GLXMA [22]: 20%; pre-emergence activity against SETVI [23]: 100%; pre-emergence activity against VIOTR [24]: 80%; post-emergence activity against TRZAS [25]: 0%; pre-emergence activity against LOLRI ([6]; application rate 320 g/ha): 100%; post-emergence activity against BRSNW [26]: 0%; pre-emergence activity against BRSNW [27]: 0%; post-emergence activity against AMARE ([7]; application rate 320 g/ha): 90%
O=C1N(Cc2ccccn2)CCCC12CCCN(Cc1cccc(F)c1F)C2=O (racemic) [I-108],,,90%,,90%,,,,90%,90%,,pre-emergence activity against POAAN ([8]; application rate 1280 g/ha): 90%; pre-emergence activity against ALOMY ([3]; application rate 1280 g/ha): 90%
O=C1N(Cc2ccccc2)CCC12CCCN(Cc1cccc(F)c1F)C2=O (racemic) [I-084],,90%,,,,100%,,100%,100%,90%,100%,pre-emergence activity against STEME ([10]; application rate 1280 g/ha): 90%; pre-emergence activity against AMARE ([28]; application rate 1280 g/ha): 90%; pre-emergence activity against DIGSA ([29]; application rate 1280 g/ha): 100%
COc1ccccc1CN1CCCC2(CCCN(Cc3ccccc3OC)C2=O)C1=O (racemic) [I-071],,,,,,100%,,100%,,,,post-emergence activity against ABUTH [30]: 90%
O=C1N(Cc2cccc(Cl)c2F)CCCC12CCCN(Cc1cccc(Cl)c1F)C2=O (racemic) [I-007],90%,,100%,100%,90%,100%,,,,90%,100%,post-emergence activity against SETVI [31]: 90%; pre-emergence activity against VERPE [32]: 90%; pre-emergence activity against ALOMY ([3]; application rate 1280 g/ha): 90%; post-emergence activity against ECHCG ([9]; application rate 320 g/ha): 100%; pre-emergence activity against STEME ([10]; application rate 1280 g/ha): 90%; post-emergence activity against VERPE ([11]; application rate 320 g/ha): 90%
O=C1N(Cc2c(F)cccc2F)CCC12CCN(Cc1c(F)cccc1F)C2=O (racemic) [I-101],90%,90%,,,90%,,90%,90%,90%,90%,90%,post-emergence activity against MATIN [33]: 90%; pre-emergence activity against POAAN ([8]; application rate 1280 g/ha): 100%
"O=C1N(Cc2c(F)cc(F)cc2F)CCCC12CCCN(Cc1c(F)cc(F)cc1F)C2=O (racemic) [I-198, 2,8-bis[(2,4,6-trifluorophenyl)methyl]-2,8-diazaspiro[5.5]undecane-1,7-dione]",90%,90%,100%,100%,90%,,,,,90%,,"post-emergence activity against SETVI [31]: 90%; pre-emergence activity against VERPE [32]: 90%; pest or weed control at 320 g/ha ([8]; Poa annua, pre-emergence, 504 h, application rate 320 g/ha, read-out: pre-emergence activity against POAAN): 100%; pre-emergence activity against ALOMY ([3]; application rate 320 g/ha): 90%; pest or weed control at 1280 g/ha ([9]; Echinochloa crus-galli, post-emergence, 504 h, application rate 1280 g/ha, read-out: post-emergence activity against ECHCG): 90%; pre-emergence activity against STEME ([10]; application rate 320 g/ha): 90%; pest or weed control at 320 g/ha ([6]; Lolium rigidum, pre-emergence, 504 h, application rate 320 g/ha, read-out: pre-emergence activity against LOLRI): 100%; pre-emergence activity against AMARE ([28]; application rate 320 g/ha): 90%; pre-emergence activity against DIGSA ([29]; application rate 320 g/ha): 100%"
O=C1N(Cc2ccccc2)CCCC12CCCN(Cc1c(F)cccc1F)C2=O (racemic) [I-068],,,100%,100%,100%,100%,90%,,,,90%,pre-emergence activity against STEME ([10]; application rate 1280 g/ha): 90%; post-emergence activity against VERPE ([11]; application rate 1280 g/ha): 90%
COc1ccccc1CN1CCCC2(CCCN(Cc3ccccc3Cl)C2=O)C1=O (racemic) [I-095],,,100%,,90%,,90%,,90%,,,post-emergence activity against VERPE ([11]; application rate 1280 g/ha): 90%
O=C1N(Cc2ccsc2)CCCC12CCCN(Cc1ccsc1)C2=O (racemic) [I-046],,,,,,,,100%,90%,,90%,pre-emergence activity against POAAN ([8]; application rate 1280 g/ha): 100%; pre-emergence activity against STEME ([10]; application rate 320 g/ha): 100%; pre-emergence activity against AMARE ([28]; application rate 1280 g/ha): 90%; pre-emergence activity against DIGSA ([29]; application rate 1280 g/ha): 90%
